In the NIST ThermoML archive (doi:10.1016/j.jct.2012.11.032):

Assay: xn = mol fraction of the nth substance listed
Settings: 101 kPa, Liquid; for speed of sound: Sing-around technique in a fixed-path interferometer; for mass density: Vibrating tube method

CCCCCCCCCCn1cc[n+](C)c1.[Cl-] [1-decyl-3-methylimidazolium chloride] + O
Settings | mass density [kg/m3] | speed of sound [m/s]
283 K, x1 = 0.000105 | 999.733 | 1449.9
283 K, x1 = 0.000185 | 999.76 | 1451.1
283 K, x1 = 0.000277 | 999.776 | 1452.4
283 K, x1 = 0.000377 | 999.82 | 1453.9
283 K, x1 = 0.000452 | 999.839 | 1454.6
283 K, x1 = 0.000546 | 999.878 | 1455.8
283 K, x1 = 0.000728 | 999.945 | 1458.5
283 K, x1 = 0.000836 | 999.997 | 1460.3
283 K, x1 = 0.001002 | 1000.05 | 1462.6
283 K, x1 = 0.001099 | 1000.05 | 1463.7
283 K, x1 = 0.00118 | 1000.1 | 1464.7
283 K, x1 = 0.001259 | 1000.11 | 1465
283 K, x1 = 0.001351 | 1000.13 | 1465.9
283 K, x1 = 0.001452 | 1000.14 | 1466.5
283 K, x1 = 0.001539 | 1000.14 | 1467.1
283 K, x1 = 0.001631 | 1000.14 | 1467.9
283 K, x1 = 0.001869 | 1000.13 | 1468.9
283 K, x1 = 0.001988 | 1000.13 | 1469.3
288 K, x1 = 0.000105 | 999.142 | 1467.8
288 K, x1 = 0.000185 | 999.164 | 1468.9
288 K, x1 = 0.000277 | 999.176 | 1470.2
288 K, x1 = 0.000377 | 999.206 | 1471.5
288 K, x1 = 0.000452 | 999.216 | 1472.4
288 K, x1 = 0.000546 | 999.247 | 1473.5
288 K, x1 = 0.000728 | 999.3 | 1476
288 K, x1 = 0.000836 | 999.347 | 1477.5
288 K, x1 = 0.001002 | 999.38 | 1479.5
288 K, x1 = 0.001099 | 999.375 | 1480.5
288 K, x1 = 0.00118 | 999.412 | 1481.3
288 K, x1 = 0.001259 | 999.417 | 1481.7
288 K, x1 = 0.001351 | 999.423 | 1482.5
288 K, x1 = 0.001452 | 999.42 | 1483
288 K, x1 = 0.001539 | 999.421 | 1483.4
288 K, x1 = 0.001631 | 999.412 | 1483.9
288 K, x1 = 0.001869 | 999.393 | 1484.8
288 K, x1 = 0.001988 | 999.38 | 1485.2
293 K, x1 = 0.000105 | 998.25 | 1483.9
293 K, x1 = 0.000185 | 998.269 | 1484.9
293 K, x1 = 0.000277 | 998.279 | 1486
293 K, x1 = 0.000377 | 998.297 | 1487.2
293 K, x1 = 0.000452 | 998.301 | 1488.1
293 K, x1 = 0.000546 | 998.325 | 1489.2
293 K, x1 = 0.000728 | 998.361 | 1491.4
293 K, x1 = 0.000836 | 998.402 | 1492.8
293 K, x1 = 0.001002 | 998.424 | 1494.6
293 K, x1 = 0.001099 | 998.408 | 1495.4
293 K, x1 = 0.00118 | 998.437 | 1496.1
293 K, x1 = 0.001259 | 998.436 | 1496.5
293 K, x1 = 0.001351 | 998.434 | 1497.1
293 K, x1 = 0.001452 | 998.423 | 1497.6
293 K, x1 = 0.001539 | 998.415 | 1497.9
293 K, x1 = 0.001631 | 998.403 | 1498.3
293 K, x1 = 0.001869 | 998.372 | 1499
293 K, x1 = 0.001988 | 998.354 | 1499.4
298 K, x1 = 0.000105 | 997.096 | 1498
298 K, x1 = 0.000185 | 997.108 | 1498.9
298 K, x1 = 0.000277 | 997.114 | 1500
298 K, x1 = 0.000377 | 997.124 | 1501.1
298 K, x1 = 0.000452 | 997.122 | 1501.8
298 K, x1 = 0.000546 | 997.141 | 1502.8
298 K, x1 = 0.000728 | 997.166 | 1504.9
298 K, x1 = 0.000836 | 997.199 | 1506.1
298 K, x1 = 0.001002 | 997.205 | 1507.7
298 K, x1 = 0.001099 | 997.182 | 1508.4
298 K, x1 = 0.00118 | 997.205 | 1509
298 K, x1 = 0.001259 | 997.199 | 1509.4
298 K, x1 = 0.001351 | 997.192 | 1509.9
298 K, x1 = 0.001452 | 997.175 | 1510.3
298 K, x1 = 0.001539 | 997.164 | 1510.6
298 K, x1 = 0.001631 | 997.146 | 1510.9
298 K, x1 = 0.001869 | 997.078 | 1511.5
298 K, x1 = 0.001988 | 997.079 | 1511.8
303 K, x1 = 0.000105 | 995.704 | 1510.3
303 K, x1 = 0.000185 | 995.706 | 1511.1
303 K, x1 = 0.000277 | 995.707 | 1512.1
303 K, x1 = 0.000377 | 995.711 | 1513.1
303 K, x1 = 0.000452 | 995.705 | 1513.8
303 K, x1 = 0.000546 | 995.718 | 1514.7
303 K, x1 = 0.000728 | 995.732 | 1516.6
303 K, x1 = 0.000836 | 995.759 | 1517.7
303 K, x1 = 0.001002 | 995.75 | 1519.2
303 K, x1 = 0.001099 | 995.72 | 1519.7
303 K, x1 = 0.00118 | 995.739 | 1520.3
303 K, x1 = 0.001259 | 995.728 | 1520.6
303 K, x1 = 0.001351 | 995.715 | 1521
303 K, x1 = 0.001452 | 995.694 | 1521.5
303 K, x1 = 0.001539 | 995.683 | 1521.6
303 K, x1 = 0.001631 | 995.659 | 1521.9
303 K, x1 = 0.001869 | 995.549 | 1522.4
303 K, x1 = 0.001988 | 995.574 | 1522.6
308 K, x1 = 0.000105 | 994.091 | 1520.9
308 K, x1 = 0.000185 | 994.084 | 1521.6
308 K, x1 = 0.000277 | 994.08 | 1522.5
308 K, x1 = 0.000377 | 994.079 | 1523.4
308 K, x1 = 0.000452 | 994.068 | 1524.1
308 K, x1 = 0.000546 | 994.074 | 1524.9
308 K, x1 = 0.000728 | 994.082 | 1526.7
308 K, x1 = 0.000836 | 994.1 | 1527.7
308 K, x1 = 0.001002 | 994.083 | 1528.9
308 K, x1 = 0.001099 | 994.044 | 1529.4
308 K, x1 = 0.00118 | 994.057 | 1529.9
308 K, x1 = 0.001259 | 994.044 | 1530.2
308 K, x1 = 0.001351 | 994.028 | 1530.5
308 K, x1 = 0.001452 | 994.006 | 1531
308 K, x1 = 0.001539 | 993.985 | 1531.1
308 K, x1 = 0.001631 | 993.962 | 1531.3
308 K, x1 = 0.001869 | 993.807 | 1531.7
308 K, x1 = 0.001988 | 993.859 | 1531.9
313 K, x1 = 0.000105 | 992.269 | 1529.9
313 K, x1 = 0.000185 | 992.257 | 1530.5
313 K, x1 = 0.000277 | 992.252 | 1531.4
313 K, x1 = 0.000377 | 992.242 | 1532.2
313 K, x1 = 0.000452 | 992.229 | 1532.8
313 K, x1 = 0.000546 | 992.227 | 1533.5
313 K, x1 = 0.000728 | 992.229 | 1535.1
313 K, x1 = 0.000836 | 992.239 | 1536
313 K, x1 = 0.001002 | 992.214 | 1537.2
313 K, x1 = 0.001099 | 992.17 | 1537.6
313 K, x1 = 0.00118 | 992.176 | 1538
313 K, x1 = 0.001259 | 992.167 | 1538.3
313 K, x1 = 0.001351 | 992.142 | 1538.6
313 K, x1 = 0.001452 | 992.118 | 1539
313 K, x1 = 0.001539 | 992.095 | 1539
313 K, x1 = 0.001631 | 992.066 | 1539.2
313 K, x1 = 0.001869 | 991.864 | 1539.5
313 K, x1 = 0.001988 | 991.947 | 1539.7
